Read-outs that look alike come from different tables or passages of the source.
What was measured:
[1] = biological target: T1, α2 subunit of the human GABAA receptor in association with the beta2 (short) and gamma2 (long) subunits (Homo sapiens, UniProt P18507+P47869+P47870); test: GABA-induced membrane potential response (FMP dye, FlexStation3) in HEK-293 cells expressing GABAA α2; format: cell-based
T1 construct: expressed in transfected cells; host or cells: HEK-293
Procedure: (§1) The compounds are tested on HEK-293 (Human Embryonic Kidney) cells stably expressing the […] or the α5 subunit of the human GABAA receptor in association with the beta2 (short) and gamma2 (long) subunits, thus forming heteropentameric GABAA receptors. The cells are maintained in the presence of a selection of three antibiotics—neomycin, zeocin and puromycin—in a Dulbecco medium (DMEM) containing 10% (v/v) foetal bovine serum The membrane potential is monitored using the fluorescent blue FMP dye (Molecular Devices), following the instructions of the manufacturer. On the day before the experiment, the cells are transferred to 96-well plates (in a density of 50,000 cells/well). 18-24 h later the cells are washed and incubated with the compounds under test plus the FMP dye. Recording of the fluorescence signal in a FlexStation3 plate reader (Molecular Devices, USA) is started 40 min later. After 30 sec of monitoring baseline fluorescence GABA is added to evoke a fluorescent signal reporting depolarisation of the membrane potential across the plasma membrane. The GABA induced responses are recorded for 90 seconds. Data are calculated by subtracting the average baseline value and computing the area under the curve of the fluorescence signal induced by GABA. The IC50 values for α5 and the EC50 values for α2 of the tested compounds are determined from log concentration versus response curves obtained by non-linear regression using SoftMax Pro software (Molecular Devices, USA).

[2] = biological target: T2, α1 subunit of the human GABAA receptor in association with the beta2 (short) and gamma2 (long) subunits (Homo sapiens, UniProt P14867+P18507+P47870); test: GABA-induced membrane potential response (FMP dye, FlexStation3) in HEK-293 cells expressing GABAA α1; format: cell-based
T2 construct: expressed in transfected cells; host or cells: HEK-293
T2 sequence (P14867 28-456): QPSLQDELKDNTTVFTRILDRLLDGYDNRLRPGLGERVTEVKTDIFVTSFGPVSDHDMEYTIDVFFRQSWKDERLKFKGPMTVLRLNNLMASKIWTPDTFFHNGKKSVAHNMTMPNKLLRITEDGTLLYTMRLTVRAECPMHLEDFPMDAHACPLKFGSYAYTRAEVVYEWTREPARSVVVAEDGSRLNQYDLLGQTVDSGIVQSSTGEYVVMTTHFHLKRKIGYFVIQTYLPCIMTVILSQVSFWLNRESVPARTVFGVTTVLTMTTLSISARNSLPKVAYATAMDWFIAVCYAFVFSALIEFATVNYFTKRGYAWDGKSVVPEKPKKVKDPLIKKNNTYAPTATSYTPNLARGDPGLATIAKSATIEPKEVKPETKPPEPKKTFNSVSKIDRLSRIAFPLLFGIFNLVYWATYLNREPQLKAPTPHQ
T2 sequence (P47870 26-474 isoform P47870-1 partner limits assumed): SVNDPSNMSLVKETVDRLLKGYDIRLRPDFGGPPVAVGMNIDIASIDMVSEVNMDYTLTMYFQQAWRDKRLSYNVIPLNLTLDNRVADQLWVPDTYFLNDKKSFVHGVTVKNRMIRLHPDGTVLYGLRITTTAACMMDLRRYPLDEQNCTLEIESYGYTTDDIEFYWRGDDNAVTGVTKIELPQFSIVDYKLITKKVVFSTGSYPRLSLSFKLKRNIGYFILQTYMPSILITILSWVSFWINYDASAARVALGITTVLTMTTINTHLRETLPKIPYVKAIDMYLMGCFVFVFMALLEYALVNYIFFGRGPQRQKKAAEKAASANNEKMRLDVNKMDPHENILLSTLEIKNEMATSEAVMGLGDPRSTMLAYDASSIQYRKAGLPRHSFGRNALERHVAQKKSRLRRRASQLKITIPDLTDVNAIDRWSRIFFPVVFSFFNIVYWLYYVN
T2 sequence (P18507 40-475 partner): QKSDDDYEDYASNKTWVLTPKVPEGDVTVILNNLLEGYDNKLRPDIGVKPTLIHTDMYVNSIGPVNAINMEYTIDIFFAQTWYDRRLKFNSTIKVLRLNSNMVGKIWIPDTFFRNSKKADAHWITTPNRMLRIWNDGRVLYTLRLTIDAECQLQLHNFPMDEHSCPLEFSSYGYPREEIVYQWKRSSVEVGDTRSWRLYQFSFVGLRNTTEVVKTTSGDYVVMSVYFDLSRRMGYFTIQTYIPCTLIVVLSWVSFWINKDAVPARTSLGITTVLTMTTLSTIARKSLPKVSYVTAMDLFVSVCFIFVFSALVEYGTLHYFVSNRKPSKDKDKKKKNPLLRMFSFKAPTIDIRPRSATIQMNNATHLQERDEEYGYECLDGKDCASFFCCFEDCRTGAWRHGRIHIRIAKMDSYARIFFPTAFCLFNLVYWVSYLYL

[3] = biological target: T3, α5 subunit of the human GABAA receptor in association with the beta2 (short) and gamma2 (long) subunits (Homo sapiens, UniProt P18507+P31644+P47870); test: GABA-induced membrane potential response (FMP dye, FlexStation3) in HEK-293 cells expressing GABAA α5; format: cell-based
T3 construct: expressed in transfected cells; host or cells: HEK-293
T3 sequence (P31644 32-462): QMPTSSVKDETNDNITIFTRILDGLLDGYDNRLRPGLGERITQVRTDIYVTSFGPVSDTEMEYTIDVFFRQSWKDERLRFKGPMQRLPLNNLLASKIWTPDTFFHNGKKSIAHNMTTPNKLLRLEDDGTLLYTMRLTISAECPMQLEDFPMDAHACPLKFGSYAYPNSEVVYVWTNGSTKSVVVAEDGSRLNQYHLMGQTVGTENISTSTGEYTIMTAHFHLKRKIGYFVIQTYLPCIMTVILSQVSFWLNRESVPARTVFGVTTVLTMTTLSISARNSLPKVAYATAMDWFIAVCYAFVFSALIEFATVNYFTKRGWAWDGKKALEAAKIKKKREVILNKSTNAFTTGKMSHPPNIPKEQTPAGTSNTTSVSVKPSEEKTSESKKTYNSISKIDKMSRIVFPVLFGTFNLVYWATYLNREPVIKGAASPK
T3 sequence (P47870 26-474 isoform P47870-1 partner limits assumed): as the sequence (P47870 26-474 isoform P47870-1 partner limits assumed) above
T3 sequence (P18507 40-475 partner): as the sequence (P18507 40-475 partner) above
Procedure: as §1

mice [4] = test: Light-dark test in mice; format: in vivo; conditions: i.p. administration, FIG. 5
Procedure: FIG. 5. […] Mean values±S.E.M. (n=11-20/group) Student's t-test: vehicle vs. Diazepam-treated group (*p<0.05) Dunnett test following ANOVA: vehicle-treated vs. compound-treated groups (#:p<0.05).
The light-dark apparatus contains a light (brightly illuminated) and a dark compartment. A small opening connects the two parts. During the 5 minutes test mice were placed individually in the light compartment and allowed to explore the entire apparatus. The activity of animals was measured automatically by interruptions of horizontal and vertical infrared beams. An increase of time spent in the light area (increase in light horizontal time) is interpreted as an anxiolytic effect. The results are illustrated in FIG. 5.

mice [5] = test: Prepulse inhibition test in mice, PCP-induced PPI disruption; format: in vivo; conditions: i.p. administration, FIG. 4
Excerpt: FIG. 4. […] Mean values±S.E.M. (n=10-12/group) Student's t-test: vehicle vs. PCP-treated group (***p<0.001) Dunnett's test following ANOVA: PCP-treated vs. PCP+compound treated groups (#:p<0.05).
The startle reaction of a healthy rodents and humans to a strong acoustic stimulus is reduced by the prior presentation of a weak stimulus. The effect of the weak stimulus on the startle response has been termed prepulse inhibition (PPI). Reduced prepulse inhibition is a hallmark feature of attention-processing (sensorimotor gating) deficits in patients with schizophrenia and other psychotic disorders. Acute administration of phencyclidine (PCP), an antagonist of N-methyl D-aspartate (NMDA)-type glutamate receptors, disrupts PPI in rodents and this effect can be prevented by clinically effective antipsychotics. The results are illustrated in FIG. 4.

mice [6] = test: Novel object recognition test in mice; format: in vivo; conditions: i.p. administration, FIG. 1 and FIG. 2
Excerpt: FIG. 1 and FIG. 2. […] Mean values±S.E.M. (n=8-11/group); Dunnett test following ANOVA (*:p<0.05, **:p<0.01, ***:p<0.001). Discrimination index: Duration of new object exploration (s)−Duration of familiar object exploration (s)/Duration of new object exploration (s)+Duration of familiar object exploration (s).
The novel object recognition test evaluates the ability of mice to detect novelty in an otherwise familiar environment. Subsequent a short exploratory period, mice are unable to discriminate between the familiar and the new object 24 hours later. […] Enhancement of the discrimination index is considered as a procognitive effect. The results are illustrated in FIG. 1 and FIG. 2.

rats = test: Social interaction test in rats; format: in vivo; conditions: i.p. administration, FIG. 6
Excerpt: FIG. 6. […] Mean values±S.E.M. (n=12/group) Kruskal-Wallis ANOVA followed by Mann-Whitney U test: control vs. compound-treated groups (**:p<0.05).
The social interaction test is a model used to measure anxiolytic or anxiogenic behaviour in rodents. When a pair of unfamiliar rats is placed together in the open field the animals show specific social behaviours (sniffing, following, grooming, crawling over and under other rats). Anxiolytic compounds such as benzodiazepines increase in the time spent with social interactions. In our experiment rats were submitted to the social interaction test of anxiety 30 min after drug treatment. The social interaction test consisted of 10 min of social encounters between two animals that received the same pharmacological treatment. The results are illustrated in FIG. 6.

[7] = HEK 293 cells expressing GABAA α1, expressed as % of GABA EC50, read-out: α1 IC50
[8] = HEK 293 cells expressing GABAA α5, expressed as % of GABA EC50, read-out: α5 IC50

T1 sequence (P47869 29-451): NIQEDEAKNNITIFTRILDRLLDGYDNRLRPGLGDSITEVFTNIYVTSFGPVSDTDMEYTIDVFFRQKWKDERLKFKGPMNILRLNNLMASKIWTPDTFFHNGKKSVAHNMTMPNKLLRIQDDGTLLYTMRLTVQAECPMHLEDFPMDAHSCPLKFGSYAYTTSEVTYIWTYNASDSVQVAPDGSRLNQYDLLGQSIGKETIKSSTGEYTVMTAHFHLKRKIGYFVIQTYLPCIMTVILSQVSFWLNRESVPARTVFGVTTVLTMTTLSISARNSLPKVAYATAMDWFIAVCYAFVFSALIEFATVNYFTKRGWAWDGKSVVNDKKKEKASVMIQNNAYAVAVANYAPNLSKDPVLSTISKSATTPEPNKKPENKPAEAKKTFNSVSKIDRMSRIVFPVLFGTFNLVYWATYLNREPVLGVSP
T1 sequence (P47870 26-474 isoform P47870-1 partner limits assumed): as the sequence (P47870 26-474 isoform P47870-1 partner limits assumed) above
T1 sequence (P18507 40-475 partner): as the sequence (P18507 40-475 partner) above

Work on CCc1c(C2=NN=C(C)Cc3cc4c(cc32)OC(C)C(=O)N4)sc2ccc(Cl)cc12 (racemic) [Example 9, 6-(5-Chloro-3-ethyl-1-benzothiophen-2-yl)-3,9-dimethyl-1,10-dihydro[1,4]oxazino[3,2-h][2,3]benzodiazepin-2(3H)-one] yielded an EC50 [1] of 1000 nM, an IC50 [2, 7] of over 10000 nM and an IC50 [3, 8] of 700 nM.
In the case of CC1=NN=C(c2sc3ccc(Cl)cc3c2C)c2cc3c(cc2C1)NC(=O)C(C)O3 (single isomer, unassigned; (-)) [Example 26, (−)-6-(5-Chloro-3-methyl-1-benzothiophen-2-yl)-3,9-dimethyl-1,10-dihydro[1,4]oxazino[3,2-h][2,3]benzodiazepin-2(3H)-one], the “Anxiolytic activity in Light-dark test (activity in the light compartment)” value (mice [4]) is reported as “Anxiolytic activity”.
For CC1=NN=C(c2sc3ccc(Cl)cc3c2C)c2cc3c(cc2C1)NC(=O)C(C)O3 (single isomer, unassigned; (+)) [Example 25, (+)-6-(5-Chloro-3-methyl-1-benzothiophen-2-yl)-3,9-dimethyl-1,10-dihydro[1,4]oxazino[3,2-h][2,3]benzodiazepin-2(3H)-one], the “Effect in the PCP-induced PPI disruption model” value (mice [5]) was “Ameliorating effect”.
For CC1=NN=C(c2sc3ccc(Cl)cc3c2C)c2cc3c(cc2C1)NC(=O)C(C)O3 (centres unmarked) [Example 24, 6-(5-Chloro-3-methyl-1-benzothiophen-2-yl)-3,9-dimethyl-1,10-dihydro[1,4]oxazino[3,2-h][2,3]benzodiazepin-2(3H)-one], the “Procognitive effect (discrimination index) in the object recognition model” value (mice [6]) was “Procognitive effects”.
CC1=NN=C(c2sc3cccc(F)c3c2C)c2cc3c(cc2C1)NC(=O)C(C)O3 (centres unmarked) [Example 1, 6-(4-fluoro-3-methyl-1-benzothiophen-2-yl)-3,9-dimethyl-1,10-dihydro[1,4]oxazino[3,2-h][2,3]benzodiazepin-2(3H)-one] was tested, and the EC50 [1] was 3500 nM, the IC50 [2] was over 10000 nM and the IC50 [3] was 700 nM.
COc1ccc2oc(C3=NN=C(C)Cc4cc5c(cc43)OC(C)C(=O)N5)c(C)c2c1 (racemic) [Example 2, 6-(5-Methoxy-3-methyl-1-benzofuran-2-yl)-3,9-dimethyl-1,10-dihydro[1,4]oxazino[3,2-h][2,3]benzodiazepin-2(3H)-one] gave an EC50 [1] of 800 nM, an IC50 [2] of over 10000 nM and an IC50 [3] of 800 nM.
With CC1=NN=C(c2sc3cc(Cl)c(F)cc3c2C)c2cc3c(cc2C1)NC(=O)C(C)O3 (centres unmarked) [Example 8, 6-(6-Chloro-5-fluoro-3-methyl-1-benzothiophen-2-yl)-3,9-dimethyl-1,10-dihydro[1,4]oxazino[3,2-h][2,3]benzodiazepin-2(3H)-one] the EC50 [1] was 1000 nM, the IC50 [2] was over 10000 nM and the IC50 [3] was 3000 nM.
CC1=NN=C(c2oc3ccc(Cl)cc3c2C)c2cc3c(cc2C1)NC(=O)C(C)O3 (centres unmarked) [Example 12, 6-(5-Chloro-3-methyl-1-benzofuran-2-yl)-3,9-dimethyl-1,10-dihydro[1,4]oxazino[3,2-h][2,3]benzodiazepin-2(3H)-one] gave an EC50 [1] of 1000 nM, an IC50 [2] of over 10000 nM and an IC50 [3] of 3000 nM.
With COc1ccc2oc(C3=NN=C(C)Cc4cc5c(cc43)OC(C)C(=O)N5)c(C)c2c1 (single isomer, unassigned; (+)) [Example 4, (+)-6-(5-Methoxy-3-methyl-1-benzofuran-2-yl)-3,9-dimethyl-1,10-dihydro[1,4]oxazino[3,2-h][2,3]benzodiazepin-2(3H)-one] the “Anxiolytic activity in the social interaction model” value (rats) was “Anxiolytic activity” and the “Procognitive effect (discrimination index) in the object recognition model” value (mice [6]) was “Procognitive effects”.
CC1=NN=C(c2oc3ccc(O)cc3c2C)c2cc3c(cc2C1)NC(=O)C(C)O3 (centres unmarked) [Example 14, 6-(5-Hydroxy-3-methyl-1-benzofuran-2-yl)-3,9-dimethyl-1,10-dihydro[1,4]oxazino[3,2-h][2,3]benzodiazepin-2(3H)-one] showed an EC50 [1] of 1000 nM, an IC50 [2] of 13700 nM and an IC50 [3] of 430 nM.
CC1=NN=C(c2sc3cc(Cl)ccc3c2C)c2cc3c(cc2C1)NC(=O)C(C)O3 (racemic) [Example 5, 6-(6-Chloro-3-methyl-1-benzothiophen-2-yl)-3,9-dimethyl-1,10-dihydro[1,4]oxazino[3,2-h][2,3]benzodiazepin-2(3H)-one] gave an EC50 [1] of 1200 nM, an IC50 [2, 7] of over 10000 nM and an IC50 [3, 8] of 900 nM.
With CCc1ccc2oc(C3=NN=C(C)Cc4cc5c(cc43)OC(C)C(=O)N5)c(CC)c2c1 (centres unmarked) [Example 13, 6-(3,5-Diethyl-1-benzofuran-2-yl)-3,9-dimethyl-1,10-dihydro[1,4]oxazino[3,2-h][2,3]benzodiazepin-2(3H)-one] the EC50 [1] was 1100 nM, the IC50 [2] was over 10000 nM and the IC50 [3] was 1300 nM.

From patent publication US9926332B2, “Dihydro-oxazinobenzodiazepine compounds, a process for their preparation and pharmaceutical compositions containing them” (priority 2014, dated 2018)
